The text below walks through data of patent US20240400986A1, “MEMBRANE BOUND COMPOSITIONS AND METHODS RELATING TO SAME” (FLAGSHIP PIONEERING INNOVATIONS VII, LLC, priority 2021, published 2024).

Like-named read-outs stand apart in the source and are kept apart here. A value given as a limit tells only on which side of the number the result lay.

Data set [1] deals with neuronal cell line derived from human neuroblastoma. Description: Small molecule compound screen of gigasome production in neuronal monocultures. The settings on record: for fold induction at 0.01 µM / fold induction at 0.1 µM / fold induction at 1 µM / fold induction at 10 µM: Homo sapiens, read-out: Fold Change of Gigasomes Produced vs. DMSO; for fold induction at 0.01 µM / fold induction at 0.1 µM / fold induction at 1 µM / fold induction at 10 µM / downregulation of gigasome production: 24 h; for Number of Gigasomes Produced / Fold Change of Gigasomes Produced vs. DMSO / downregulation of gigasome production: neuronal cells; for Number of Gigasomes Produced / Fold Change of Gigasomes Produced vs. DMSO: 24 hours; for downregulation of gigasome production: doses 10-10,000 nM.
Description: To quantify and characterize gigasome production using microscopy, while tracking cell viability/phenotype, a multi-readout system was developed that allowed simultaneous analysis of gigasomes harvested from cell culture media supernatants and respective gigasome producing cell viability. […] For the screening, a total of 99 compounds (TargetMol) were divided in 5 groups. Each group included an untreated condition, a vehicular DMSO control, and a known high-gigasome producing condition to comparatively study gigasome production rates. As a cell death control group, 500 nM Staurosporine was added to induce apoptosis. Cultures were incubated for 24 hours under gigasome inducing conditions at concentrations ranging between 10 nM and 10,000 nM. Before the end of the treatment, live neuronal cultures were imaged. The Zeiss ZEN Blue software was used to distribute imaging fields of view (positions) to create an unbiased imaging sample of a well. 5 images were taken using a Zeiss LSM 900 confocal microscope. […] The BioApps ZEN software package was used to perform cell nucleus segmentation and counting. After 24 hours, gigasomes were harvested from the cell culture media by gently removing from the top of each 96-well ⅔ of the total volume without disturbing the cell layer (containing the settled gigasomes) and by adding to each well the same amount of PBS. The wells were washed twice gently, and the gigasome-containing media/PBS wash was transferred into the well of a 384-well glass bottom plate. Cells remaining in the 96-well plates were assessed for viability using CellTiter-Glo (Promega).
For gigasome analysis in 384-well plates, the Zeiss ZEN Blue software was used to distribute positions to create an unbiased imaging sample of a well. 6 images per well were taken using a Zeiss LSM 900 confocal microscope.
A watershed binary segmentation step was performed to separate grouped objects. For each particle in the mask, characteristic parameters of the particle were calculated and saved.
Particles of interest were identified by thresholding by area and circularity. […] Circularity, defined by the formula 4pi(area/perimeter^2, was set to be between 0.8 and 1, where a value of 1.0 is a perfect circle, and a value of 0 is a line. Gigasomes were identified from the particles of interest by thresholding by mean nuclear signal. The nuclear signal threshold was set using a value equal to one fourth of a threshold value calculated by the Li auto-threshold algorithm applied to the distribution of all particles of interest. Particles of interest with nuclear signal below this value were considered “negative” for nuclear material and were identified as gigasomes. A sampling factor was calculated to extrapolate the total quantity of a type of object (particles, particles of interest, gigasomes) in the well. The sampling factor was the percentage of the well's area that was imaged. […] The normalized quantity or distribution of objects was described as a quantity or distribution of objects per 1000 cells.

Data set [2] has the same test system.
The mark [3] stands for this setting: neuronal cells, dose 10000 nM, 24 hours.
Where [4] appears, read: neuronal cells, dose 10 nM, 24 hours.
Where [5] appears, read: neuronal cells, dose 100 nM, 24 hours.
[6] abbreviates: neuronal cells, dose 1000 nM, 24 hours.

Consider `C/C=C1/[C@H](O[C@@H]2O[C@H](CO)[C@@H](O)[C@H](O)[C@H]2O)OC=C(C(=O)OC)[C@H]1CC(=O)OCCc1ccc(O)c(O)c1` [Oleuropein, reference compound], for which the fold induction at 0.01 µM in data set [1] was 1 to 1.25. Moreover, the fold induction at 0.1 µM in data set [1] is 0.75 to 1. Further, the fold induction at 1 µM in data set [1] was 0.75 to 1. For the same molecule, in data set [1], the fold induction at 10 µM lay in the range of 0.5 to 0.75. Further, the “Number of Gigasomes Produced” value in data set [1] (dose 10 nM) was above 40; in data set [1] (dose 100 nM) it was 30-35; in data set [1] (dose 1000 nM) it was 30-35; in data set [1] (dose 10000 nM) it was 25-30. Besides, the Viability in data set [2] (human, 24 h, 10 nM) is 100%; in data set [2] (human, 24 h, 100 nM) it was 100%; in data set [2] (human, 24 h, 1000 nM) it was above 75%; in data set [2] (human, 24 h, 10000 nM), 100%.
`CCCCCCCCCCCCCC[N+](C)(C)C.[Br-]` [MiTMAB, reference compound]: in data set [1] (dose 10000 nM), the “Fold Change of Gigasomes Produced vs. DMSO” value (“Fold Change” below) is 2.0-3.0 and the “Number of Gigasomes Produced” value is reported as 55-65. The molecule also returned a Viability in data set [2] (setting [3]) above 75%.
Turning to `C/C(=C\c1csc(C)n1)[C@@H]1C[C@@H]2O[C@]2(C)CCC[C@H](C)[C@H](O)[C@@H](C)C(=O)C(C)(C)[C@@H](O)CC(=O)N1` [Ixabepilone], the fold induction at 0.01 µM in data set [1] was in the range of 2 to 3. The “Number of Gigasomes Produced” value in data set [1] (dose 10 nM) is listed as 65-75. Further, the Viability in data set [2] (human, 24 h, 10 nM) is given as 50-75%.
Take `CC(C)[C@H](O)C(=O)N[C@@H](C)C(=O)N[C@@H]1C(=O)N(C)CCc2ccccc21` [Semagacestat]: the fold induction at 0.01 µM in data set [1] fell in the range of 0.75 to 1. Moreover, the fold induction at 0.1 µM in data set [1] fell in the range of 0.75 to 1. Further, the fold induction at 1 µM in data set [1] was in the range of 0.5 to 0.75. In addition, in data set [1], the fold induction at 10 µM was in the range of 0.5 to 0.75. Besides, the “Number of Gigasomes Produced” value in data set [1] (dose 10 nM) is on record as above 40; in data set [1] (dose 100 nM) it was 35-40; in data set [1] (dose 1000 nM), 20-25; in data set [1] (dose 10000 nM), 20-25. For the same molecule, the Viability in data set [2] (setting [4]), in data set [2] (setting [5]), in data set [2] (setting [6]) and in data set [2] (setting [3]) was 100% throughout.
Regarding `CC(=O)Nc1cccc(-n2c(=O)n(C3CC3)c(=O)c3c(Nc4ccc(I)cc4F)n(C)c(=O)c(C)c32)c1` [Trametinib, reference compound], the fold induction at 0.01 µM in data set [1] was in the range of 1.25 to 1.5. In addition, the fold induction at 0.1 µM in data set [1] lay in the range of 1.25 to 1.5. The fold induction at 1 µM in data set [1] fell in the range of 2 to 3. For the same molecule, the “Number of Gigasomes Produced” value in data set [1] (dose 10 nM) is reported as 35-45; in data set [1] (dose 100 nM) it was 35-45; in data set [1] (dose 1000 nM), 65-75. The Viability is above 75% in data set [2] (human, 24 h, 10 nM); above 75% in data set [2] (human, 24 h, 100 nM); above 75% in data set [2] (human, 24 h, 1000 nM).
Consider `CC(C)(O)c1coc(S(=O)(=O)NC(=O)Nc2c3c(cc4c2CCC4)CCC3)c1` [MCC950 sodium], for which, in data set [1], the fold induction at 0.01 µM was 1 to 1.25. In addition, in data set [1], the fold induction at 0.1 µM was 1 to 1.25. Besides, the fold induction at 1 µM in data set [1] lay in the range of 0.5 to 0.75. Moreover, the fold induction at 10 µM in data set [1] is 0.75 to 1. The “Number of Gigasomes Produced” value is 35-40 in data set [1] (dose 10 nM), 35-40 in data set [1] (dose 100 nM), 20-25 in data set [1] (dose 1000 nM) and 25-30 in data set [1] (dose 10000 nM). Besides, the Viability in data set [2] (setting [4]) was 100%; in data set [2] (setting [5]), above 75%; in data set [2] (setting [6]), 100%; in data set [2] (setting [3]) it was 100%.
For the molecule `CN[C@H](CC(=O)O)C(=O)O` [NMDA, reference compound], the “Fold Change” value is reported as 0.75-1.0 in data set [1] (dose 10 nM), 0.75-1.0 in data set [1] (dose 100 nM), 0.5-0.75 in data set [1] (dose 1000 nM) and 0.25-0.5 in data set [1] (dose 10000 nM). Moreover, the “Number of Gigasomes Produced” value in data set [1] (dose 10 nM) is reported as 30-35; in data set [1] (dose 100 nM), 30-35; in data set [1] (dose 1000 nM), 20-25; in data set [1] (dose 10000 nM), 15-20. For the same molecule, in data set [1], the “downregulation of gigasome production” value was “dose-dependent downregulation”. The Viability in data set [2] (setting [4]), in data set [2] (setting [5]), in data set [2] (setting [6]) and in data set [2] (setting [3]) was 100% each time.
On to `CCCn1cnc2c(NCc3ccc(C)s3)nc(N[C@H](CC)CO)nc21` [GV-58, reference compound], for which the “Fold Change” value in data set [1] (dose 10 nM) is given as 0.75-1.0; in data set [1] (dose 100 nM), 0.75-1.0; in data set [1] (dose 1000 nM) it was 0.75-1.0; in data set [1] (dose 10000 nM) it was 0.25-0.5. Moreover, the “Number of Gigasomes Produced” value in data set [1] (dose 10 nM) is on record as 25-30; in data set [1] (dose 100 nM), 20-25; in data set [1] (dose 1000 nM) it was 20-25; in data set [1] (dose 10000 nM), 10-15. The “downregulation of gigasome production” value in data set [1] is “dose-dependent downregulation”. Moreover, the Viability in data set [2] (setting [4]) is on record as 100%; in data set [2] (setting [5]), 100%; in data set [2] (setting [6]), 100%; in data set [2] (setting [3]), above 75%.
Turning to `CCN(CCO)CCCC(C)Nc1ccnc2cc(Cl)ccc12` (centres unmarked) [Hydroxychloroquine], the fold induction at 0.01 µM in data set [1] lay in the range of 1 to 1.25. Moreover, the fold induction at 0.1 µM in data set [1] was 0.75 to 1. Besides, the fold induction at 1 µM in data set [1] is 0.75 to 1. Moreover, in data set [1], the fold induction at 10 µM is 0.75 to 1. Also, the “Number of Gigasomes Produced” value is reported as 30-35 in data set [1] (dose 10 nM), 20-25 in data set [1] (dose 100 nM), 25-30 in data set [1] (dose 1000 nM) and 20-25 in data set [1] (dose 10000 nM). Further, the Viability is reported as 100% in data set [2] (setting [4]), 100% in data set [2] (setting [5]), above 75% in data set [2] (setting [6]) and above 75% in data set [2] (setting [3]).
Regarding `CC1=NS(=O)(=O)c2cc(Cl)ccc2N1` [Diazoxide], the fold induction at 0.1 µM in data set [1] lay in the range of 1.5 to 1.75. Besides, the fold induction at 1 µM in data set [1] lay within 1.25 to 1.5. Further, in data set [1], the fold induction at 10 µM fell in the range of 1 to 1.25. The entries for the “Number of Gigasomes Produced” value in data set [1] (dose 100 nM), in data set [1] (dose 1000 nM) and in data set [1] (dose 10000 nM) were 45-55, 35-45 and 35-45, respectively. Also, the Viability came to 100% in data set [2] (human, 24 h, 100 nM); 100% in data set [2] (human, 24 h, 1000 nM); 100% in data set [2] (human, 24 h, 10000 nM).
With `O=C(c1ccc2nccnc2c1)N1CCCCC1` [CX516], in data set [1], the fold induction at 0.01 µM is 0.75 to 1. The fold induction at 0.1 µM in data set [1] fell in the range of 1.25 to 1.5. Further, the fold induction at 1 µM in data set [1] was 1 to 1.25. Moreover, the “Number of Gigasomes Produced” value in data set [1] (dose 10 nM) was below 35; in data set [1] (dose 100 nM) it was 45-55; in data set [1] (dose 1000 nM), 35-45. Also, the Viability in data set [2] (setting [4]), in data set [2] (setting [5]) and in data set [2] (setting [6]) was 100% each time.
Take `COC(=O)c1ccc([C@@H]2c3[nH]c4ccccc4c3C[C@@H](C(=O)OC)N2C(=O)CCl)cc1` [RSL3, reference compound]: in data set [1] (dose 1000 nM), the “Fold Change” value was 2.0-3.0 and the “Number of Gigasomes Produced” value was 55-65. In data set [2] (setting [6]), the Viability was above 75%.
As to `Cc1ncc(-c2ccnc(Nc3ccc(S(C)(=O)=O)cc3)n2)n1C(C)C` [AZD-5438], in data set [1], the fold induction at 0.01 µM is 1.5 to 1.75. For the same molecule, the fold induction at 0.1 µM in data set [1] was 1.25 to 1.5. In addition, the fold induction at 1 µM in data set [1] is 1 to 1.25. The “Number of Gigasomes Produced” value is listed as 45-55 in data set [1] (dose 10 nM), 35-45 in data set [1] (dose 100 nM) and 35-45 in data set [1] (dose 1000 nM). The Viability was determined as 100% in data set [2] (human, 24 h, 10 nM); 100% in data set [2] (human, 24 h, 100 nM); 100% in data set [2] (human, 24 h, 1000 nM).
